“And” between values parts separate entries of the source, which are not always exact repeats. Identical values can stand only once. Like-named read-outs stand apart in the source and are kept apart here.

We go through ten molecules from patent US20230242474A1, “LIPID COMPOUND AND THE COMPOSITION THEREOF” (GUANGZHOU RIBOBIO CO., LTD, priority 2020, published 2023).

The format of series [1] is physicochemical.
Another series concerns BALB/c mice. Nature of the series: Transfection efficiency: in vivo bioluminescence of luciferase mRNA encapsulated by different LNP. The conditions noted are these: for Average fluorescence intensity, Leg (intramuscular injection) / Average fluorescence intensity, Liver (tail vein injection): 10 μg/mice; for Total photons number, Leg: intramuscular injection. On the procedure:
All animals were kept in adaptive feeding for more than 7 days before experiments, free to uptake food and drink water during experimental period, illumination 12/12 h alternating light and dark, room temperature was 20-26° C., humidity was 40-70%.
Experimental method: female BALB/c mice, encapsulated luciferase mRNA with different LNP by four different administrations which included subcutaneous injection (under the armpit), tail vein injection, intraperitoneal injection, intramuscular injection (the tibialis anterior muscle of mouse hind leg); 3, 6, 24, 48 h after administration, applied in vivo fluorescence imaging system (brand: Bruker, model: XTREME) for bioluminescence detection, the specific steps were as follows: substrate preparation: took appropriate amount of substrate Luciferin (brand: Promega) and added saline to make a 10 mg/ml solution, avoided light, injected 100 μl solution into each mouse intraperitoneally. […] Put the anesthetized mouse into machine, set the bioluminescence setting and took the photos, captured the photograph and then adjusted the upper and lower values of photograph, then collected data on the concentrated distribution of fluorescence (e.g., fluorescence intensity, average photons number, and total photons number) and processed data. Statistical analysis: the in vivo imaging outcome were shown in the fluorescence intensity or average of total photons number of different animal in the same tested group, which were used to judge whether the fluorescence intensity or total photon number of luciferase mRNA encapsulated by different LNP were high or low.
The fluorescence intensity and total photons number reflects the transfection efficiency of LNP, the value is higher, referring to the efficiency of delivering encapsulated substance into cell by LNP is higher.

Series [2] concerns T lymphocytes secreting INFγ. Nature of the series: ELISPOT count of T lymphocytes secreting INFγ after immunization with LNP-encapsulated SARS-CoV-2 S protein mRNA. In kind it is in vivo, BALB/c mice. To be noted: S protein (1 μg) stimulation, intramuscular Day 0 and Day 14, spleens after 7 days.
The test system of series [3] is S protein specific IgG antibody. In kind it is in vivo, BALB/c mice. The conditions noted are these: 14 days after the second immunization, LNP with S protein mRNA, FIG. 5.
Where [4] appears, read: LNP with SARS-CoV-2 S protein mRNA, Table 9.
Where [5] appears, read: lipid nanoparticle of the ionizable lipid (ionizable lipid/phospholipid/PEG lipid/structural lipid 50/10/1.5/38.5 %) with mRNA, Table 1.
The mark [6] stands for this setting: lipid nanoparticle of the ionizable lipid with mRNA, Table 1.

For the molecule `CCCCC/C=C/C/C=C/CCCCCCCCN(CCCO)CCCCCCCC(=O)OC(CCCCCCCC)CCCCCCCC` [A7], in series [1] (setting [4]), the “Encapsulated percentage (%)” value turned out to be 97%, the PI was found to be 0.060 and the “Size (nm)” value turned out to be 79 nm. For the same molecule, the “Size (nm)” value in series [1] (setting [5]) was determined as 105.1 nm. Moreover, in series [1] (setting [6]), the “Encapsulated percentage (%)” value came to 94.63% and the PDI was 0.175. Also, in the series on BALB/c mice (3 h after administration), the “Average fluorescence intensity, Leg (intramuscular injection)” value (from here on “Average fluorescence intensity, Leg”) came to 1683.2 and the “Average fluorescence intensity, Liver (tail vein injection)” value (“Average fluorescence intensity, Liver” below) came to 21013.1. Also, in the series on BALB/c mice (6 h after administration), the “Average fluorescence intensity, Leg” value came to 2990.1 and the “Average fluorescence intensity, Liver” value was found to be 21315.5. In addition, in the series with BALB/c mice (24 h after administration), the “Average fluorescence intensity, Leg” value came to 1436.4 and the “Average fluorescence intensity, Liver” value is on record as 444.2. In series [2] (dose 50 μg), the “Elispot counted T lymphocytes secreting INFγ” value was 805 and 700. For the same molecule, in series [3], the “S protein specific IgG antibody titer” value is on record as “higher titers of IgG antibodies”.

On to `CCCCCCCCCCCOC(=O)CCCCCN(CCO)CCCCCCCC(=O)OC(CCCCCCCC)CCCCCCCC` [A33, reference compound], for which, in series [1] (setting [4]), the “Encapsulated percentage (%)” value is reported as 95%. In series [1] (setting [4]), this molecule showed a PI of 0.104. Moreover, in series [1] (setting [4]), the “Size (nm)” value was 76 nm. For the same molecule, the figures for the “Average fluorescence intensity, Leg” value in the series on BALB/c mice (3 h after administration), in the series on BALB/c mice (6 h after administration) and with BALB/c mice (24 h after administration) were 1065.5, 1117.9 and 418.8, respectively. The “Average fluorescence intensity, Liver” value in the series with BALB/c mice (3 h after administration) came out at 2841.8; in the series with BALB/c mice (6 h after administration) it was 3144.6; in the series with BALB/c mice (24 h after administration), 100.0. Also, the “Total photons number, Leg” value with BALB/c mice (1 μg/ mice, 3 h) came to 1.41E+08; in the series on BALB/c mice (1 μg/ mice, 6 h), 2.35E+08; with BALB/c mice (1 μg/ mice, 24 h) it was 5.84E+07; in the series with BALB/c mice (5 μg/mice, 3 h), 5.20E+08; with BALB/c mice (5 μg/mice, 6 h), 4.62E+08; with BALB/c mice (5 μg/mice, 24 h), 1.63E+08. Moreover, the “Elispot counted T lymphocytes secreting INFγ” value in series [2] (dose 4 μg) was 32 and 42; in series [2] (dose 50 μg), 310 and 338. Besides, in series [3], the “S protein specific IgG antibody titer” value is recorded as “higher titers of IgG antibodies”.

Consider `CCCCCCCCCCCOC(=O)CCCCCN(CCO)CCCCCC(=O)OCCCCCCCCCCC` [A3, reference compound], for which the “Size (nm)” value in series [1] (setting [5]) is 140.6 nm. For the same molecule, in series [1] (setting [6]), the “Encapsulated percentage (%)” value stood at 81.47% and the PDI is on record as 0.120. Besides, in the series on BALB/c mice (3 h after administration), the “Average fluorescence intensity, Leg” value amounted to 60.3 and the “Average fluorescence intensity, Liver” value was determined as 12.1. For the same molecule, in the series on BALB/c mice (6 h after administration), the “Average fluorescence intensity, Leg” value was determined as 69.8 and the “Average fluorescence intensity, Liver” value is recorded as 11.9. In the series with BALB/c mice (24 h after administration), the “Average fluorescence intensity, Leg” value came to 35.9 and the “Average fluorescence intensity, Liver” value is reported as 13.5.

With `CCCCC/C=C/C/C=C/CCCCCCCCN(CCO)CCCCCCCC(=O)OC(CCCCCCCC)CCCCCCCC` [A8, reference compound], the “Size (nm)” value in series [1] (setting [5]) is reported as 142.2 nm. The “Encapsulated percentage (%)” value in series [1] (setting [6]) is reported as 76.10%. The same molecule gave a PDI in series [1] (setting [6]) of 0.120. Besides, the “Average fluorescence intensity, Leg” value in the series on BALB/c mice (3 h after administration) came to 1111; with BALB/c mice (6 h after administration), 2161.8; in the series on BALB/c mice (24 h after administration), 1294.9. The “Average fluorescence intensity, Liver” value in the series with BALB/c mice (3 h after administration) stood at 6850.3; in the series with BALB/c mice (6 h after administration), 10174.4; in the series with BALB/c mice (24 h after administration), 220.8.

Turning to `CCCCC/C=C\C/C=C\CCCCCCCCC(CCCCCCCC/C=C\C/C=C\CCCCC)OC(=O)CCCN(C)C` [MC3, reference compound], in series [1] (setting [5]), the “Size (nm)” value came to 86.7 nm. Further, in series [1] (setting [6]), the “Encapsulated percentage (%)” value stood at 92.00%. The molecule further gave a PDI in series [1] (setting [6]) of 0.10. Also, the “Total photons number, Leg” value in the series with BALB/c mice (1 μg/ mice, 3 h) is recorded as 3.43E+08; with BALB/c mice (1 μg/ mice, 6 h), 7.41E+08; in the series with BALB/c mice (1 μg/ mice, 24 h), 2.86E+08.

Consider `CCCCC/C=C/C/C=C/CCCCCCCCN(CCCO)CCCCCC(=O)OCCCCCCCCCCC` [A12], for which, in series [1] (setting [5]), the “Size (nm)” value was 119.3 nm. For the same molecule, in series [1] (setting [6]), the “Encapsulated percentage (%)” value turned out to be 86.53% and the PDI was found to be 0.083. For the same molecule, the “Total photons number, Leg” value in the series on BALB/c mice (1 μg/ mice, 6 h) is given as 6.91E+08.

In the case of `CCCCCCOCC(COCCCCCC)OC(=O)CCCCCCCN(CCCCCCCC(=O)OC(COCCCCCC)COCCCCCC)CCCNc1c(NC)c(=O)c1=O` [A28], the “Size (nm)” value in series [1] (setting [5]) worked out at 91.19 nm. Also, in series [1] (setting [6]), the “Encapsulated percentage (%)” value was determined as 89.72%. In series [1] (setting [6]), this molecule came in with a PDI of 0.13. In addition, the “Total photons number, Leg” value was found to be 6.50E+08 with BALB/c mice (1 μg/ mice, 3 h); 4.26E+08 in the series on BALB/c mice (1 μg/ mice, 6 h); 1.83E+08 with BALB/c mice (1 μg/ mice, 24 h).

Regarding `CCCCCCCCCCCOC(=O)CCCCCN(CCCCCCCC(=O)OC(COCCCCCC)COCCCCCC)CCCNc1c(NC)c(=O)c1=O` [A27], the “Size (nm)” value in series [1] (setting [5]) was determined as 94.16 nm. In addition, in series [1] (setting [6]), the “Encapsulated percentage (%)” value is 96.69%. Moreover, the PDI in series [1] (setting [6]) was 0.13. In addition, the “Total photons number, Leg” value in the series on BALB/c mice (1 μg/ mice, 3 h) turned out to be 1.34E+09; with BALB/c mice (1 μg/ mice, 6 h), 1.04E+09; in the series with BALB/c mice (1 μg/ mice, 24 h) it was 3.41E+08.

Turning to `CCCCCCCCC(CCCCCCCC)OC(=O)CCCCCCCN(CCO)CCCCCCCC(=O)OC(CCCCCCCC)CCCCCCCC` [A2, reference compound], the “Size (nm)” value in series [1] (setting [5]) turned out to be 145.5 nm. For the same molecule, in series [1] (setting [6]), the “Encapsulated percentage (%)” value is reported as 87.86% and the PDI is 0.100. Besides, in the series with BALB/c mice (3 h after administration), the “Average fluorescence intensity, Leg” value is given as 1146 and the “Average fluorescence intensity, Liver” value turned out to be 5325.2. Besides, in the series with BALB/c mice (6 h after administration), the “Average fluorescence intensity, Leg” value was 1208.2 and the “Average fluorescence intensity, Liver” value turned out to be 5934.7. In the series with BALB/c mice (24 h after administration), the “Average fluorescence intensity, Leg” value is recorded as 377.7 and the “Average fluorescence intensity, Liver” value is recorded as 162.6.

In the case of `CCCCCCOCC(COCCCCCC)OC(=O)CCCCCCCN(CCCO)CCCCCCCC(=O)OC(COCCCCCC)COCCCCCC` [A19], in series [1] (setting [5]), the “Size (nm)” value is 110.1 nm. In addition, in series [1] (setting [6]), the “Encapsulated percentage (%)” value was determined as 88.00%. In addition, the PDI in series [1] (setting [6]) turned out to be 0.0923. Further, the “Total photons number, Leg” value in the series on BALB/c mice (1 μg/ mice, 3 h) was found to be 3.69E+09; in the series with BALB/c mice (1 μg/ mice, 6 h) it was 4.77E+09; in the series on BALB/c mice (1 μg/ mice, 24 h), 7.33E+08.
